Here are results for four molecules from publication PMC4839630, “Investigation the Possibility of Using Peptides with a Helical Repeating Pattern of Hydro-Phobic and Hydrophilic Residues to Inhibit IL-10” (PLoS ONE, 2016).

By Kd is commonly meant the constant that tells how readily two partners part at equilibrium. Read a low Kd as higher affinity.

Ends that are not written are not given here.

The test system of one data set is IL-10R on U937 cells. The data set can be described thus: Surface staining of IL-10 receptor (PE anti-IL10R antibody) on U937 cells by flow cytometry. The format is cell-based, human. The following applies: U937 stimulated overnight with LPS (4×10^−3 μM); P1 4.5 μM, P2 4.1 μM, P3 5.6 μM, P4 4.2 μM; MFI by flow cytometry. As to the method:
Human macrophage cell line U937 was maintained in complete RPMI 1640 media (Gibco) supplemented with 10% heat inactivated FCS, 100 U of penicillin/ml and 100 μg of streptomycin/ml and were cultured at 37°C with 5% CO2.
In vitro stimulation of U937 cells: 2–5×10^5 of U937 cells were cultured in 1 mL of RPMI with 10% human serum containing 100 U of ampicillin and 100 U of streptomycin. The U937 cells were either unstimulated or stimulated with 4×10^−3 μM of LPS (Sigma, Cat. L3024-5MG) overnight, in the presence of different concentration of P1, P2 or P3 or anti-IL-10 (10 μg/mL, ~0.3 μM) or anti-IL-10R (10 μg/mL, ~0.1 μM) antibodies. Supernatants were collected and stored at -80°C till use.
Surface staining of IL-10 receptor on U937 cell membrane: 2–5×10^5 of U937 cells were stained with PE conjugated anti-IL10R antibody for 30 minutes on ice, then washed with PBS with 2% of FCS and analysed with an Acuri flowcytometor (BD, USA) as described previously.
(In general: Flow cytometry measures light scatter and fluorescence of single cells or particles in a stream.)

The target of the next data set is T1, IL-10R1 (Homo sapiens, UniProt Q13651).
T1 construct: purchased Creative BioMart, USA IL10RA-212H
T1 sequence (Q13651 22-578): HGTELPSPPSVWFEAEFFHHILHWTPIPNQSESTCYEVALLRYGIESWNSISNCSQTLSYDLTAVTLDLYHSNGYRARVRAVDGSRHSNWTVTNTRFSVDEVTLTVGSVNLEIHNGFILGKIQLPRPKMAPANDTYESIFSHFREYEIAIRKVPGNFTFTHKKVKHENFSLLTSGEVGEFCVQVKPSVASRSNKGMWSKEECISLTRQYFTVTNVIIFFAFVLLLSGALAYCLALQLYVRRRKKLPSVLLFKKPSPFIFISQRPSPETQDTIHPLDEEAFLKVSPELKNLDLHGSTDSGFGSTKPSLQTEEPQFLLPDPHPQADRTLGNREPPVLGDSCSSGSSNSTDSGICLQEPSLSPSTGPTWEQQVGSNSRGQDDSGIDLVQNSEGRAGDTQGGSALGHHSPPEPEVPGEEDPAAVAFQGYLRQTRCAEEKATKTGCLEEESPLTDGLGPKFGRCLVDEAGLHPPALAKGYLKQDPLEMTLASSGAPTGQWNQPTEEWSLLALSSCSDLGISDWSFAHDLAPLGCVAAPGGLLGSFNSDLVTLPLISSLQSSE
The data set is described as follows: SPR binding to immobilised IL-10R1. Particulars: SPR Biacore T100, CM5 chip, 1X PBS pH 7.4, 25°C, 10 μL/min; steady-state affinity analysis, three independent repeats.

A further data set deals with U937 cells. The data set can be described thus: 7-AAD cell-viability assay. The format is cell-based, human. The following applies: two independent assays, flow cytometry. The procedure: 7-AAD assay: 7-AAD Viability Staining Solution was purchased from eBioscience (Cat. 00–6993). Briefly, 5 μL of 7-aad were added to 5×10^5 cells for 5 minutes, and 7-aad staining was measured by a BD Accuri flow cytometry.
In order for a peptide to be useful as potential drug candidates, its cytotoxicity has to be low. We evaluated the cytotoxicity of P1 and P2 using 7-AAD cell-viability assay (S5 Fig).

A further data set has as its target IL-10 (Homo sapiens, UniProt P22301). The data set is described as follows: SPR binding to immobilised IL-10. Also noted: purchased ebioscience BMS/346. The following applies: SPR Biacore T100, CM5 chip, 1X PBS pH 7.4, 25°C, 10 μL/min; steady-state affinity analysis, three independent repeats.
The subject of the next data set is MC/9 cells. The data set can be described thus: MC/9 cell proliferation, MTT assay. The following applies: 5×10^−5 μM IL-10, 1×10^4 cells, 48 h, media with 2×10^−5 μM IL4. The format is cell-based, mouse. As to the method:
Murine mast cell MC/9 cell line was purchased from ATCC, USA and cultured following the protocols in the product sheets. Briefly, MC/9 cells were cultured in complete RPMI 1640 media (Gibco) supplemented with 10% heat inactivated fetal calf serum (FCS), 100 U of penicillin/ml and 100 μg of streptomycin/ml and were cultured at 37°C with 5% CO2 and 5 ng of murine IL-4 or 1 ng of human IL-10 as recommended by ATCC, with or without adding P1, P2 or P3 respectively. MC/9 cell proliferation was determined by MTT assay (purchased from ATCC, USA) following the instruction of manufacturer.
Mouse mast cell line MC/9 growth is IL-10 dependent. We therefore investigated whether P1 or P2 is able to prevent IL-10 mediated MC/9 cell growth. MC/9 cells were cultured at different numbers for 48 hours and cell proliferation was measured by MTT assay, which measures the MC/9 cell proliferation. […] Thus, cell number of 1×10^4 was selected in the assay.
For orientation: Tetrazolium dyes change colour on reduction, which living cells bring about.

In the case of Lipopolysaccharide [LPS], in the data set on IL-10R on U937 cells, the “binding of PE anti-IL-10R antibody (clone 3F9) to IL-10R on U937 cells” value is “More antibody binds to IL-10R1 after LPS stimulation, and is positively correlated with the dose of LPS”.

Turning to FFKKFFKKFFKKFFKK [P1], the values for the Kd on IL-10R1 and at IL-10 were 16 ± 1.95 µM and 8.94 ± 0.37 µM, respectively. Further, the “cell death, 7-AAD (in words)” value in the data set on U937 cells is on record as “there is no significant difference for cell death in the presence or absence of P1 or P2”. Turning to FFRRFFRRFFRRFFRR [P2], the “cell death, 7-AAD (in words)” value with U937 cells is given as “there is no significant difference for cell death in the presence or absence of P1 or P2”.

B1: IL-10: Human IL10 purchased from ebioscience (Cat. No: BMS/346) (protein)
chain: SPGQGTQSENSCTHFPGNLPNMLRDLRDAFSRVKTFFQMKDQLDNLLLKESLLEDFKGYLGCQALSEMIQFYLEEVMPQAENQDPDIKAHVNSLGENLKTLRLRLRRCHRFLPCENKSKAVEQVKNAFNKLQEKGIYKAMSEFDIFINYIEAYMTMKIRN
For B1, in the data set on MC/9 cells, the “increase in MC/9 cell proliferation” value was “approximately 133%”.
